Laboratory results reported in US10519177B2, “Heterocyclic compounds and uses thereof” (Plexxikon Inc., priority 2013, dated 2019).
Like-named read-outs stand apart in the source and are kept apart here.

Tests used:
BRD4-BD1 (44-164) = BRD4-BD1 (44-164) (Homo sapiens (Human), UniProt O60885); experiment: Alphascreen binding assay BRD4-BD1; details: BRD4(1) H4; read-out: Biochemical activity (IC50 μM) BRD4(1) H4
Method: Binding of compounds of formula (I) with bromodomain 2, 3 4 was assessed using Alphascreen binding assay. The inhibition of the interaction between bromodomain and its acetylated target protein (Filippakopoulos P et al. 2012) was measured quantitatively using recombinant BRD proteins, an acetylated Histone 4 peptide and AlphaScreen™ technology. In absence of inhibition the BRD protein bound to AlphaScreen™ nickel chelate acceptor beads can interact with the acetylated Histone 4 peptide which is immobilized by the AlphaScreen™ Streptavidin coated beads. This interaction brings donor and acceptor beads in proximity. The close proximity allows the singlet oxygen produced by laser excitation of the donor beads to reach the acceptor beads and generate a luminescence signal.
Recombinant human bromodomains containing the N-terminal bromodomain (BRD2-BD1 (71-194), BRD3-BD1 (24-144) and BRD4-BD1 (44-164)) or dual bromodomains (BRD4-BD12 (1-477), BRD4-BD12 (1-472)) were prepared and purified as described in protein expression and purification session. The peptide is human Histone H41-21K5AcK8AcK12AcK16Ac-Biotin (Anaspec CA, USA).
Protocol for BRD2, BRD3 and BRD4 assay: All components are prepared in buffer composed of 50 mM HEPES pH 7.5, 100 mM NaCl, 0.01% bovine serum albumin (“BSA”), 0.01% Triton X-100, 2 mM dithiothreitol (“DTT”). 7 μL of Bromodomain protein and 7 μL of peptide are added to wells containing 1 μL of various concentrations of test compounds of formula (I) or DMSO vehicle in an Alphaplate (PerkinElmer GA, USA) and incubated for 1 hour at room temperature. 4 μL donor and acceptor bead mixture is then added with final concentrations of 7.5 μg/ml. 30 minutes after bead addition, Alpha signal is read on the Envision spectrometer (λEx 680 nm, λEm 520-620 nm). Final concentrations of bromodomain proteins and peptide are as shown below.
All data was normalized to the mean of 16 high and 16 low control wells on each plate. A four parameter curve fit of the following formula was then applied: Y=a+(b−a)/(1+(x/c)^d) Where ‘a’ is the minimum, ‘b’ is the maximum, ‘c’ is the pIC50 and ‘d’ is the Hill slope. Protein Expression and Purification
Recombinant human bromodomains containing the N-terminal bromodomain (BRD2-BD1 (71-194), BRD3-BD1 (24-144) and BRD4-BD1 (44-164)) or dual bromodomains (BRD4-BD12 (1-477), BRD4-BD12 (1-472)) were expressed in E. coli cells (in a modified pET vector) with an N-terminal six-His tag and purified using a combination of both IMAC (Ni-affinity) and size exclusion chromatography steps.
Recombinant BRD proteins were expressed using the E. coli strain BL21-CodonPlus (DE3) (Agilent Technologies CA, USA). Cells were grown in Terrific Broth (TB) media to an OD600 of 1.2 at 37° C. at which temperature was reduced to 25° C., protein was induced with 1.0 mM ispropyl-β-D-thiogalactopyranoside (“IPTG”) for 12-18 hours and harvested by centrifugation at 8000×g for 20 minutes. Cells were re-suspended in 0.1M K2PO4 pH 8.0, 250 mM NaCl, 10% Glycerol, 0.75% NP-40, 25 mM Imidazole, 5 mM beta-mercaptoethanol (“BME”) with 0.2 mg/ml Lysosyme, 2.0 mM phenylmethanesulfonyl fluoride (“PMSF”), 25 μg/ml DNAse I, incubated on ice for 30 minutes and lyzed with a cell disruptor (MicroFluidics MA, USA). The lysate was clarified by centrifugation at 20,000×g for 2 hours. The protein was captured with Ni-NTA resin (Life Technologies, USA). Contaminating proteins were washed off with 25 mM Tris-HCl pH 8.3, 250 mM NaCl, 12% Glycerol and 50 mM Imidazole. Following 3× wash steps, protein was eluted step wise using a 50 mM HEPES pH 7.5, 500 mM NaCl and 400 mM Imidazole. The protein was further purified using Gel Filtration column 26/600 Superdex 200 (GE Biosciences NJ, USA) in 50 mM HEPES pH 7.5, 250 mM NaCl. The protein was aliquoted and flash-frozen in liquid Nitrogen.

BRD4-BD12 (1-477) = BRD4-BD12 (1-477) (Homo sapiens (Human), UniProt O60885); experiment: Alphascreen binding assay BRD4-BD12; details: BRD4(1 2) H4; read-out: Biochemical activity (IC50 μM) BRD4(1 2) H4
Outline: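 In this competition format, compounds displace a biotinylated tetra-acetyl H4 peptide from E. coli-expressed human BRD4 bromodomain constructs captured on nickel chelate beads. The reaction runs at pH 7.5 with 2 mM DTT and detergent for 1 h at room temperature before a 30 min bead step.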

MV-4-11 cells = experiment: Oncology cell growth assay MV-4-11 (CellTiter Glo); type: cell-based; details: Homo sapiens, MV4-11, 72 h, read-out: Cell activity (IC50 μM) MV-4-11 3d-Growth
Outline: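 Growth read by CellTiter Glo luminescence after 72 h compound treatment of MLL-AF4-bearing MV-4-11 cells (3000/well). Titration: 8 points, 1:3 steps, maximum 10 μM, 0.2% DMSO final. Data normalized to DMSO wells, four-parameter fit gives pIC50.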

bromodomain = experiment: at least one of the bromodomain cell assays of Example 57; type: cell-based; details: at least one of the bromodomain cell assays described in Example 57; read-out: IC50 in at least one of the bromodomain cell assays

Structure (SMILES) | IC50 (BRD4-BD1 (44-164)) [µM] | IC50 (BRD4-BD12 (1-477)) [µM] | IC50 (MV-4-11 cells; MV-4-11, 3d growth) [µM] | IC50 (bromodomain) [µM] | IC50 (MV-4-11 cells) [µM]
Cc1noc(C)c1-c1cnc2[nH]cc(C3(O)CCC(F)(F)CC3)c2c1 [P-0024, 1-[5-(3,5-dimethylisoxazol-4-yl)-1H-pyrrolo[2,3-b]pyridin-3-yl]-4,4-difluoro-cyclohexanol] | < 1 |  |  |  | 
CCCCS(=O)(=O)n1ccc2ncc(-c3c(C)noc3C)cc21 [P-0036, 4-(1-butylsulfonylpyrrolo[3,2-b]pyridin-6-yl)-3,5-dimethyl-isoxazole] | < 1 |  |  |  | 
COC(c1ccc(C(F)(F)F)nc1)c1c[nH]c2ncc(-c3c(C)noc3C)cc12 (stereo not drawn) [P-0013, 4-[3-[methoxy-[6-(trifluoromethyl)-3-pyridyl]methyl]-1H-pyrrolo[2,3-b]pyridin-5-yl]-3,5-dimethyl-isoxazole] | < 1 |  |  |  | 
COc1ncc(F)cc1C(OC)c1c[nH]c2ncc(-c3c(C)noc3C)cc12 (stereo not drawn) [P-0011, 4-[3-[(5-fluoro-2-methoxy-3-pyridyl)-methoxy-methyl]-1H-pyrrolo[2,3-b]pyridin-5-yl]-3,5-dimethyl-isoxazole] | < 1 |  |  |  | 
Cc1noc(C)c1-c1cnc2[nH]cc(C(O)c3ccccc3Cl)c2c1 (stereo not drawn) [P-0019, (2-chlorophenyl)-[5-(3,5-dimethylisoxazol-4-yl)-1H-pyrrolo[2,3-b]pyridin-3-yl]methanol] | < 1 |  |  |  | 
CCCS(=O)(=O)n1cc(-c2cnn(C)c2)c2ncc(-c3c(C)noc3C)cc21 [P-0111, 3,5-dimethyl-4-[3-(1-methylpyrazol-4-yl)-1-propylsulfonyl-pyrrolo[3,2-b]pyridin-6-yl]isoxazole] | < 1 |  |  |  | 
Cc1noc(C)c1-c1cnc2c(-c3ccc(C(=O)O)cc3)cn(C(CC#N)C3CCCC3)c2c1 (stereo not drawn) [P-0527, 4-[1-(2-cyano-1-cyclopentyl-ethyl)-6-(3,5-dimethylisoxazol-4-yl)pyrrolo[3,2-b]pyridin-3-yl]benzoic acid] |  | < 1 | < 1 | < 10 | 
COC(=O)c1ccc(-c2cn([C@H](C)c3ccccn3)c3cc(-c4c(C)noc4C)cnc23)cc1 [P-0508, methyl 4-[6-(3,5-dimethylisoxazol-4-yl)-1-[(1R)-1-(2-pyridyl)ethyl]pyrrolo[3,2-b]pyridin-3-yl]benzoate] |  | < 1 | < 1 | < 10 | 
Cc1noc(C)c1-c1cnc2c(-c3ccc(C=O)cc3)cn(CC3CCC(F)(F)CC3)c2c1 [P-0600, 4-[1-[(4,4-difluorocyclohexyl)methyl]-6-(3,5-dimethylisoxazol-4-yl)pyrrolo[3,2-b]pyridin-3-yl]benzaldehyde] |  | < 1 | < 1 | < 10 | 
Cc1noc(C)c1-c1cnc2c(-c3ccc(S(=O)(=O)NC4CC4)cc3)cn(CC3(F)CCCCC3)c2c1 [P-0494, N-cyclopropyl-4-[6-(3,5-dimethylisoxazol-4-yl)-1-[(1-fluorocyclohexyl)methyl]pyrrolo[3,2-b]pyridin-3-yl]benzenesulfonamide] |  | < 1 | < 1 | < 10 | 
Cc1noc(C)c1-c1cnc2c(-c3ccc(C(=O)O)cc3)cn([C@@H](C)c3ccccc3)c2c1 [P-0560, 4-[6-(3,5-dimethylisoxazol-4-yl)-1-[(1S)-1-phenylethyl]pyrrolo[3,2-b]pyridin-3-yl]benzoic acid] |  | < 1 | < 1 | < 10 | 
Cc1noc(C)c1-c1cnc2c(-c3cnn(CC(F)(F)F)c3)cn([C@@H](C)c3ccccn3)c2c1 [P-0512, 3,5-dimethyl-4-[1-[(1S)-1-(2-pyridyl)ethyl]-3-[1-(2,2,2-trifluoroethyl)pyrazol-4-yl]pyrrolo[3,2-b]pyridin-6-yl]isoxazole] |  | < 1 | < 1 | < 10 | 
[2H]C([2H])(O)c1ccc(-c2cn(CC3CCC(F)(F)CC3)c3cc(-c4c(C)noc4C)cnc23)cc1 [P-0571, dideutrio-[4-[1-[(4,4-difluorocyclohexyl)methyl]-6-(3,5-dimethylisoxazol-4-yl)pyrrolo[3,2-b]pyridin-3-yl]phenyl]methanol] |  | < 1 | < 1 | < 10 | 
[2H]C([2H])(C1CCC(F)(F)CC1)n1cc(-c2ccc(C(=O)OC)cc2)c2ncc(-c3c(C)noc3C)cc21 [P-0538, methyl 4-[1-[dideuterio-(4,4-difluorocyclohexyl)methyl]-6-(3,5-dimethylisoxazol-4-yl)pyrrolo[3,2-b]pyridin-3-yl]benzoate] |  | < 1 | < 1 | < 10 | 
[2H]C([2H])(C1CC(F)(F)C1)n1cc(-c2cnc(C3CC3)nc2)c2ncc(-c3c(C)noc3C)cc21 [P-0259, 4-[3-(2-cyclopropylpyrimidin-5-yl)-1-[dideuterio-(3,3-difluorocyclobutyl)methyl]pyrrolo[3,2-b]pyridin-6-yl]-3,5-dimethyl-isoxazole] |  | < 1 |  | < 10 | < 1
Cc1noc(C)c1-c1cnc2c(-c3ccc(C(=O)O)c(F)c3F)cn(CC3CCC(F)(F)CC3)c2c1 [P-0416, 4-[1-[(4,4-difluorocyclohexyl)methyl]-6-(3,5-dimethylisoxazol-4-yl)pyrrolo[3,2-b]pyridin-3-yl]-2,3-difluoro-benzoic acid] |  | < 1 |  | < 10 | < 1
Cc1noc(C)c1-c1cnc2c(-c3ccc(C(=O)OC(C)(C)C)cc3)cn(S(=O)(=O)c3ccccc3)c2c1 [P-0374, tert-butyl 4-[1-(benzenesulfonyl)-6-(3,5-dimethylisoxazol-4-yl)pyrrolo[3,2-b]pyridin-3-yl]benzoate] |  | 1 to 10 |  | < 10 | 10 to 200
CC(C)n1cc(-c2cnc3ccn(CC4CCC(F)(F)CC4)c3c2)ccc1=O [P-0518, 5-[1-[(4,4-difluorocyclohexyl)methyl]pyrrolo[3,2-b]pyridin-6-yl]-1-isopropyl-pyridin-2-one] |  | 1 to 10 | 10 to 200 | < 10 | 
Cc1noc(C)c1-c1cnc2c(-c3ccc(C(=O)O)nc3)cn(CC3(F)CCC(F)(F)CC3)c2c1 [P-0456, 5-[6-(3,5-dimethylisoxazol-4-yl)-1-[(1,4,4-trifluorocyclohexyl)methyl]pyrrolo[3,2-b]pyridin-3-yl]pyridine-2-carboxylic acid] |  | < 1 | < 1 | < 10 | 
Cc1noc(C)c1-c1cnc2c(-c3cnc(N)cn3)cn(CC3(F)CCCCC3)c2c1 [P-0472, 5-[6-(3,5-dimethylisoxazol-4-yl)-1-[(1-fluorocyclohexyl)methyl]pyrrolo[3,2-b]pyridin-3-yl]pyrazin-2-amine] |  | < 1 | < 1 | < 10 | 
